Where two headings read alike, the source gives them in different places.
Experiments:
human PBMC (Th17 cells) = test: Th17 differentiation and IL-17 secretion in human PBMC; format: cell-based; conditions: IL-17 ELISA after 48 hours; for Emax: maximum activation rate
Method: Test procedure: PBMC cells were first thawed and plated, and then stimulated with stimulating factors (anti-hCD28: 5 μg/mL; rhTGF-β1: 5 ng/mL; rhIL-6: 20 ng/mL; rhIL-23: 10 ng/Ml) to differentiate to Th17, while adding different concentrations of compounds. All test compounds were serially diluted at 3-fold dilution with DMSO, with 8 serial dilutions starting from the maximum concentration 3 μM. The supermatants were collected after 48 hours for IL-17 ELISA detection, and compared with the solvent group, to determine the activation rate of the compounds on Th17 cells to secrete IL-17. EC50 values were fitted with Graphad8.0, and the TOP values fitted by the software was Emax %.

[1] = target: T1, RORγt (RORγ-LBD chimeric receptor) (Homo sapiens, UniProt P51449); test: Luciferase reporter gene assay of RORγt agonistic activity in HEK293T cells; format: cell-based; parameters: Emax: dose or concentration left out as unconfirmed; conditions: for Emax: HEK-293T
T1 construct: host or cells: HEK293T
T1 sequence (P51449 269-508 limits assumed): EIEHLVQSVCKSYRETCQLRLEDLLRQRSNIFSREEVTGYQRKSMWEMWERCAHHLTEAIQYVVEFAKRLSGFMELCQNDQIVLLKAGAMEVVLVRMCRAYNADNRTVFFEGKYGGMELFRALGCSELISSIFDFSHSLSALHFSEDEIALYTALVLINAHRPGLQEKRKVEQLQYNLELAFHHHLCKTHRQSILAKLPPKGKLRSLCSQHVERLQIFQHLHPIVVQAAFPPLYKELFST
From the text: This assay was basically carried out according to the method described in the literature ONCOIMMUNOLOGY, 2016, VOL. 5, NO. 12, e1254854.
The RORγ-LBD coding sequence was inserted into pBIND plasmid (Promega, E1581). This expression vector and a reporter vector (pGL4.35 carrying a stably integrated luciferase reporter gene driven by GAL4 promoter) were co-expressed in HEK293T host cells. When the agonist binds to the corresponding chimeric receptor, the chimeric receptor binds to the GAL4 binding site on the reporter gene carrier and stimulates reporter gene expression. The agonistic activity of the compound on RORγ was determined according to the intensity of the chemiluminescence signal.
1.1 All test compounds were serially diluted at 3-fold dilution with DMSO, with 10 serial dilutions starting from 10 mM; LIT-00093 solution was prepared similarly. […] 1.4 The compound plate was sealed and shaken for 5 min.
Cells were cultured according to ATCC standard operation, and 6*10^6 HEK293T cells were seeded into 100 mm cell culture dishes, cultured overnight in a 37° C., 5% CO2 incubator, and then transfected. Compounds of corresponding concentrations were added for treatment, and the Steady-Glo™ kit (Lot E 2520) was used for further detection.
Chemiluminescence values were detected with Envision 2104; EC50 values were calculated.
% Activity was calculated with the following equation: […]
RLU: […] R L Upositive: average value of positive control R L Uvehicle: average value of negative control
The log values of the compound concentration and % Activity were fitted using Graphad 8.0, to calculate EC50s of the compounds.

[2] = Metabolic stability in mouse liver microsomes; format: in vitro ADME, CD-1 mice; conditions: for half-life: CD-1; for microsomal CLint: CD-1, 0.5 mg protein/mL
From the text: (§1) According to standard methods of in vitro metabolic stability studies in the art, eg., the methods described in Kerns, Edward H. and Di Li (2008). Drug-like Properties: Concepts, Structure Design and Methods: from ADME to Toxicity Optimization. San Diego: Academic Press; Di, Li et al., Optimization of a Higher Throughput Microsomal Stability Screening Assay for Profiling Drug Discovery Candidates, J. Biomol. Screen. 2003, The method described in 8(4), 453, the liver microsomal metabolic stability test of the compounds of the present disclosure was carried out analogously as follows.
(§2) The incubation system contained 0.5 mg protein/mL microsomes, cofactors, and PBS, was pre-incubated at 37° C. for 3 min, and then added the substrate (i.e., the test compounds) to initiate the reaction. Samples were taken at 0, 1, 5, 10, 15, 20, 30 and 60 min from the start of the reaction, and an appropriate terminator was added to terminate the reaction.
(§3) The terminator was an ice acetonitrile solution containing 100 ng/mL tolbutamide and 100 ng/mL labetalol.
(§4) Sample treatment (n=3): each appropriate sample was added, vortexed and centrifuged at high speed. The supernatants were collected, and the substrate was detected by HPLC-MS/MS. The peak area at the 0 min was taken as 100%. The peak areas at other time points were converted to percentage of the remaining amount. The natural logarithms of the percentage of remaining amount at each time point was plotted against the incubation time, and the slope (−k) was calculated by linear regression. Then, Clint (uL/min/mg) and half-life (T½, min) of the compounds were calculated following the equation of the inherent clearance rate (Clint)=(k* volume of incubation solution)/mass of liver microsomes.

[3] = Metabolic stability in human liver microsomes; format: in vitro ADME; conditions: for microsomal CLint: 0.5 mg protein/mL
From the text: as §1, §2, §3, §4

[4] = Pharmacokinetic (PK) assay in mice; format: in vivo; conditions: CD-1 mice; for CL_obs: values marked **; for AUC(0-t) / Cmax / half-life / Vd / bioavailability: mouse, plasma; for Vd: values marked *, read-out: Vss; for bioavailability: Po 5 mg/kg vs IV 1 mg/kg
Method: The PK of each compound was determined as follows: 6 CD-1 mice (obtained from Shanghai Lingchang Biotechnology Co., Ltd.) were divided into two groups, 3 mice in each group. One group was administered intravenously at a dose of 1 mg/kg, and the vehicle was 5% DMSO/40% PEG400/55% (20% 3-CD); one group was administered by oral gavage at a dose of 5 mg/kg, and the vehicle was DMSO/1% methylcellulose (1:99). Blood samples were collected from saphenous vein of lower leg in each group at 0, 0.083, 0.25, 0.5, 1, 2, 4, 6, 8 and 24 h after administration. Approximately 40 μL of the blood samples were collected into anticoagulant tubes containing EDTA-K2. Immediately after collection, the tubes were inverted at least 5 times to ensure uniform mixing, and then placed on ice. The blood samples collected at each time point were centrifuged at 4° C., 8000 rpm for 5 minutes to obtain plasma. Another 1.5 mL centrifuge tube was marked with the compound name, animal number, and time point, and the plasma was transferred to this tube. The plasma was stored at −80° C. until analysis.
Compound concentrations in plasma were determined by UPLC-MS/MS method, and the pharmacokinetic parameters were calculated by Phoenix WinNolin 6.4 pharmacokinetic software on the obtained data.

GST-RORγ LBD (263-509) = target: T2, GST-RORγ LBD (263-509) (Homo sapiens, UniProt P51449); test: TR-FRET assay of agonistic activity on RORγ receptor; format: biochemical
T2 construct: GST-RORγ LBD ((263-509) (produced at ChemPartner))
T2 sequence (P51449 263-509): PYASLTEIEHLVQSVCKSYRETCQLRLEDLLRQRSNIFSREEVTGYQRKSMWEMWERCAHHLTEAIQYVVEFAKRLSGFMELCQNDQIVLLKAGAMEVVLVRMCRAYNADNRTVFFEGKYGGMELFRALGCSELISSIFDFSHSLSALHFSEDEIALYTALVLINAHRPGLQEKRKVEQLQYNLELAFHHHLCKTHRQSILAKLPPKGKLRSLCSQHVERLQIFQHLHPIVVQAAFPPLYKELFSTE
Method: A time-resolved fluorescence resonance energy transfer (TR-FRET) assay was used for the compounds of the present disclosure, to determine the agonistic activity of the compounds on the RORγ protein receptor. The agonistic activity is expressed by the concentration for 50% of maximal effect (EC50). The experiment was performed basically with reference to the methods described in ONCOIMMUNOLOGY, 2016, VOL. 5, NO. 12, e1254854.
1. Preparation of RORγ Basal Buffer
A 100 mL basal buffer was prepared, mixed homogeneously and stored for use;
The compounds of the examples shown in the table below were prepared into solutions with DMSO as the solvent, serially diluted at 3-fold dilution to 10 concentrations starting from 10 mM, and added to the corresponding wells of a 384-well plate with each concentration of each compound in duplicate;
a. A 75 nM solution of GST-RORγ LBD ((263-509) (produced at ChemPartner)) and a 4 nM solution of Biotin-SRC1 (Glsbiochem) were prepared with the above basal buffer. The two solutions were 1:1 mixed evenly, and 10 μL of the mixed solution was added into each well of the above 384-well plate. The plate was immediately centrifugated at 1000 rpm for 10 seconds; b. A 1 nM solution of Anti-GST Eu (Cisbio, #61GSTKLA) and a 50 nM solution of SA-APC (Cisbio, […]) were prepared with the above basal buffer. The two solutions were 1:1 mixed evenly, and 10 μL of the mixed solution was added into each well of the above 384-well plate. The plate was immediately centrifugated at 1000 rpm for 10 seconds; c. The resulting 384-well plate was incubated at room temperature for 15 minutes. Data were read on an Envision microplate reader, EC50 values and E max % were calculated.
a. Readings were taken at 665 nm and 615 nm wavelengths respectively on the Envision Microplate Reader, and the ratios between them were normalized. b. Calculation was carried out with the following equation: […]
wherein X is the reading of compounds, Min is the reading of the blank solution, and Max is the reading of 10 μM SRC. c. The concentration-response curve data were fitted by a four-parameter logistic nonlinear regression model, and Emax was the TOP value of the fitted curve.

[5] = HEK293T, GAL4 luciferase reporter, read-out: EC50

`CS(=O)(=O)c1ccc(-c2c(Cl)cc(NC(=O)Cc3ccc(S(=O)(=O)CC4CC4)cc3)cc2Cl)cc1` [Example 17, 2-(4-((Cyclopropylmethyl)sulfonyl)phenyl)-N-(2,6-dichloro-4′-(methylsulfonyl)-[1,1′-biphenyl]-4-yl)acetamide] showed an EC50 (human PBMC (Th17 cells)) of 113 nM, an Emax (human PBMC (Th17 cells)) of 295% and an EC50 [1] of 25 nM. For the same compound, the Emax [1] was 33.9%, the “% Remaining (T = 60 min)” value [2] was 15.30% and the half-life [2] was 22.6 min. For the same compound, the microsomal CLint [2] was 61.2 µL/min/mg, the half-life [3] was 3.3 min and the microsomal CLint [3] was 415 µL/min/mg. The “% Remaining (T = 60 min)” value [3] was 0%.

With `CCS(=O)(=O)c1ccc(-c2c(Cl)cc(NC(=O)C(COC)c3ccc(S(C)(=O)=O)cc3)cc2Cl)cc1` (centres unmarked) [Example 19, N-(2,6-Dichloro-4′-(ethylsulfonyl)-[1,1′-biphenyl]-4-yl)-3-methoxy-2-(4-(methylsulfonyl)phenyl)propionamide] the EC50 (human PBMC (Th17 cells)) was 32.1 nM, the Emax (human PBMC (Th17 cells)) was 232% and the CL_obs ([4]; IV 1 mg/kg) was 26.0** mL/min/kg. The AUC(0-t) ([4]; IV 1 mg/kg) was 647 ng·h/mL, the Cmax ([4]; IV 1 mg/kg) was 932 ng/mL and the half-life ([4]; IV 1 mg/kg) was 37.8 min. It also gave a Vd ([4]; IV 1 mg/kg) of 1.09 L/kg, a bioavailability [4] of 29.7% and an AUC(0-t) ([4]; Po 5 mg/kg) of 924 ng·h/mL. The Cmax ([4]; Po 5 mg/kg) was 419 ng/mL, the half-life ([4]; Po 5 mg/kg) was 90.6 min and the EC50 [1, 5] was 123 nM. For the same compound, the Emax [1] was 91.4%, the “% Remaining (T = 60 min)” value [2] was 23.10% and the half-life [2] was 29.2 min. The microsomal CLint [2] was 47.4 µL/min/mg, the half-life [3] was 107 min and the microsomal CLint [3] was 13 µL/min/mg. The “% Remaining (T = 60 min)” value [3] was 60%.

Work on `COCC(C(=O)Nc1cc(Cl)c(-c2ccc(S(C)(=O)=O)cc2)c(Cl)c1)c1ccc(S(=O)(=O)CC2CC2)cc1` (centres unmarked) [Example 18, 2-(4-((Cyclopropylmethyl)sulfonyl)phenyl)-N-(2,6-dichloro-4′-(methylsulfonyl)-[1,1′-biphenyl]-4-yl)-3-methoxypropionamide] yielded an EC50 (human PBMC (Th17 cells)) of 29.4 nM, an Emax (human PBMC (Th17 cells)) of 193% and an EC50 [1, 5] of 784 nM. The Emax [1] was 137%, the “% Remaining (T = 60 min)” value [2] was 15.10% and the half-life [2] was 24.1 min. The microsomal CLint [2] was 57.6 µL/min/mg, the half-life [3] was 11.5 min and the microsomal CLint [3] was 121 µL/min/mg. For the same compound, the “% Remaining (T = 60 min)” value [3] was 2%.

In the case of `CCS(=O)(=O)c1ccc(CC(=O)Nc2cc(Cl)c(-c3ccc(S(=O)(=O)C4CC4)cc3)c(Cl)c2)nc1` [Example 21, N-(2,6-Dichloro-4′-(cyclopropylsulfonyl)-1,1′-biphenyl-4-yl)-2-(5-(ethylsulfonyl)pyridin-2-yl)acetamide], the EC50 (human PBMC (Th17 cells)) is reported as 183 nM, the Emax (human PBMC (Th17 cells)) is reported as 297% and the CL_obs ([4]; IV 1 mg/kg) is reported as 4.55** mL/min/kg. For the same compound, the AUC(0-t) ([4]; IV 1 mg/kg) was 3630 ng·h/mL, the Cmax ([4]; IV 1 mg/kg) was 716 ng/mL and the half-life ([4]; IV 1 mg/kg) was 251 min. The Vd ([4]; IV 1 mg/kg) was 1.45 L/kg, the bioavailability [4] was 30.9% and the AUC(0-t) ([4]; Po 5 mg/kg) was 5630 ng·h/mL. The Cmax ([4]; Po 5 mg/kg) was 611 ng/mL, the half-life ([4]; Po 5 mg/kg) was 230 min and the EC50 [1, 5] was 72 nM. The Emax [1] was 51.2%, the “% Remaining (T = 60 min)” value [2] was 56% and the half-life [2] was 80.1 min. For the same compound, the microsomal CLint [2] was 17.3 µL/min/mg, the half-life [3] was > 145 min and the microsomal CLint [3] was < 9.6 µL/min/mg. The “% Remaining (T = 60 min)” value [3] was 79.6%.

With `CS(=O)(=O)c1ccc(-c2c(Cl)cc(NC(=O)Cc3ccc(S(C)(=O)=O)cn3)cc2Cl)cc1` [Example 10, N-(2,6-Dichloro-4′-(methylsulfonyl)-[1,1′-biphenyl]-4-yl)-2-(5-(methylsulfonyl)pyridin-2-yl)acetamide] the EC50 (GST-RORγ LBD (263-509); TR-FRET, GST-RORγ LBD with Biotin-SRC1) was 114 nM, the Emax (GST-RORγ LBD (263-509); maximum activation rate, TOP of fitted curve) was 159% and the EC50 [1, 5] was 1460 nM. The Emax [1] was 59%, the “% Remaining (T = 60 min)” value [2] was 89.90% and the half-life [2] was > 145 min. For the same compound, the microsomal CLint [2] was < 9.6 µL/min/mg, the half-life [3] was > 145 min and the microsomal CLint [3] was < 9.6 µL/min/mg. For the same compound, the “% Remaining (T = 60 min)” value [3] was 92.5%.
